Data: patent US6796966B2, “Apparatus, and kits for preventing of alleviating vasoconstriction or vasospasm in a mammal” (priority 1997, dated 2004)
Bridges are numbered along the chain shown (N, C = ends). Where no end group is shown, it is not given here.

How the values were obtained:
[1] = system: basilar artery; assay: Reversal of endothelin-1-induced cerebral vasoconstriction; suffusion of exposed basilar artery in sCSF, video microscopy; type: in vivo, New Zealand White rabbits
[2] = in the presence of oxygen; cited from earlier work
[3] = system: cerebral vasospasm; assay: ITSNP therapy for alleviation and prevention of cerebral vasospasm after aneurysmal SAH, 16 patients; type: in vivo, human; settings: pre-therapy administration
[4] = ET-1 100 nanomolar in sCSF, 1 milliliter per minute, Groups 4, 5, 6, n=38

With `O=[N+]([O-])OCC(CO[N+](=O)[O-])O[N+](=O)[O-]` [NTG, nitroglycerine] the “change in baseline diameter of the basilar artery, substance alone” value ([1]; rabbit, in vivo) was “did not produce changes” and the “reversal of ET-1-induced vasoconstriction” value ([1]; rabbit, in vivo) was “rapid and pronounced vasodilation”.

For `[N]=O` [NO, nitric oxide], the half-life in vivo [2] is given as “measured in seconds”.

For `Cc1nccn1CC1CCc2c(c3ccccc3n2C)C1=O` (stereo not drawn) [ondansetron], the “effect on nausea associated with ITSNP therapy” value [3] was “abolished”.

With “Endothelin-1 (CSCSSLMDKECVYFCHLDIIW; disulfide 1-15, 3-11; ends not checked; UniProt P05305 53-73, looked up) [ET-1]” the “reduction of arterial diameter began, after starting the delivery” value [1, 4] was 5 to 8 min, the “reduction of arterial diameter complete within” value [1, 4] was 20 to 30 min and the “average minimal diameter, % of baseline diameter” value ([1]; ET-1 100 nanomolar suffusion) was 50.4%. For the same compound, the “average minimal diameter of the artery” value ([1]; ET-1 100 nanomolar suffusion, baseline 992 microns) was 500 microns and the “return to baseline diameter after ET-1 when followed by sCSF alone” value ([1]; Group 4, n=15) was greater than 30 min.
